We go through 1 compound from US7012095B2, “Compounds for modulating cell proliferation” (HSC Research and Development Limited, priority 2000, dated 2006).

The test system of this series is normal bone marrow cells. Briefly: In vitro purging of normal bone marrow. In kind it is cell-based. As to the method: Heparinized bone marrow cells were layered over Percoll (1.077 gm/ml) (Pharmacia Fine Chemical, Piscataway N.J.) and centrifuged at 400 g at 4° C. for 10 minutes to remove neutrophils and RBCs.
For the purging process, the cells were resuspended at 1×10^6/ml in complete medium with or without 50 μM CR4. The cells were incubated with the CR4 for two and a half hours at 37° C., 5% CO2. At the end of this period the cells were thoroughly washed in medium to remove CR4 and then cultured at 2×10^5 cells/ml in IMDM (OCI, Toronto) containing 0.9% (vol/vol) methylcellulose supplemented with 30% FCS (Cansera Rexdale, ON.) or normal human plasma, a cocktail of cytokines containing G-CSF (10 ng/ml, Amgen), IL-3 (40 U/ml, Immunex), MGF (50 ng/ml, Immunex), Erythropoietin (2 u/ml, Epprex) or TPO (10 ng/ml, Amgen) and 5×10^−5M b-2-mercaptoethanol. The culture mixture was plated in 1 ml volumes into 35 mm petri dishes and incubated at 37° C., 5% CO2 in a humidified atmosphere. All cultures were evaluated at 14 days for the number of BFU-E colonies (defined as aggregates of more than 500 hemaglobinized cells or, 3 or more erythroid subcolonies), CFU-C colonies (defined as granulocyte or monocyte-macrophage cells or both) and CFU-GEMM colonies (a mixed population comprising of all elements).
For the purging process, the cells were resuspended at 1×10^6/ml in complete medium with or without 50 μM CR11. The cells were incubated with the tryrphostin for seven hours at 37° C., 5% CO2. At the end of this period the cells were thoroughly washed in medium to remove CR11 and then cultured at 2×10^5 cells/ml in IMDM (OCI, Toronto) containing 0.9% (vol/vol) methylcellulose supplementd with 30% FCS (Cansera Rexdale, ON.) or normal human plasma, a cocktail of cytokines containing G-CSF (10 ng/ml, Amgen), IL-3 (40 U/ml, Immunex), MGF (50 ng/ml, Immunex), Erythropoietin (2 u/ml, Epprex) or TPO (10 ng/ml, Amgen) and 5×10^−5M β-2-mercaptoethanol. The culture mixture was plated in 1 ml volumes into 35 mm petri dishes and incubated at 37° C., 5% CO2 in a humidified atmosphere. All cultures were evaluated at 14 days for the number of BFU-E colonies (defined as aggregates of more than 500 hemoglobinized cells or, 3 or more erythroid subcolonies), CFU-C colonies (defined as granulocyte or monocyte-macrophage cells or both) and CFU-GEMM colonies (a mixed population comprising of all elements).

The mark [1] stands for this setting: 50 μM, two and a half hours exposure, FIG. 14.

Regarding `N#C/C(=C\C=C\c1ccc(O)c(O)c1)C(=O)NCc1ccccc1` [CR4, (E,E)-2-(Benzylamido)-3-(3,4-dihydroxystyryl)acrylonitrile], the “inhibition of colony formation” value (50 μM, two and a half hours exposure, 14 days, FIG. 14) is on record as “did not result in significant inhibition”. For the same compound, under setting [1], the BFU-E colonies entry is reported as “slight drop” and the CFU-C colony numbers entry is “increased significantly”. Further, where the note is “25–50 μM, 2.5 to 5 hour exposure”, the “normal bone marrow growth and differentiation” value was “unaffected”.
